Source: patent US20240115547A1, “PSYCHOTROPIC AGENTS AND USES THEREOF” (LB PHARMACEUTICALS INC., priority 2021, published 2024)

Test system: Dopamine (e.g., D2/D3)
Experiment: Dopamine RO % by raclopride PET after LB-102, various dosage regimens (Example 3)
Assay type: in vivo, human
Settings: for Dopamine RO % (Caudate + Putamen): group mean
Experimental: Healthy subjects were dosed orally with LB102 of 50 mg QD (n=4), 75 mg QD (n=4), 100 mg QD (n=4), 50 mg SS (n=2), or 100 mg SS (n=2). Subjects were, on average, 33 years old. Subjects dosed QD were given a single dose on day 1 after which PET scans were obtained; and subjects dosed SS, i.e., steady state, were dosed once a day for 4 days and PET scans were obtained after dosing on Day 4.
Dynamic […] raclopride PET scans were obtained 0 h, 2.5 h, 7.5 h, and 23.5 h after LB-102 administration for the 50 mg and 100 mg QD treatment groups and after LB-102 administration of Day 4 for the 50 mg SS and 100 mg SS treatment groups; and 0 h, 3.5 h, 23.5 h, and 47.5 h after LB-102 administration for the 75 mg QD treatment group. Dopamine % RO were calculated using the STRM method (https://pubmed.ncbi.nlm.nih.gov/9345505/, which is incorporated herein by reference) and the combined RO % (average of caudate and putamen RO %) are shown as squares FIGS. 5A (50 mg QD), 5B (75 mg QD), 5C (100 mg QD); and FIGS. 6A (50 mg SS Day 4) and 6B (100 mg SS Day 4); and summarized in Table 3-A below.
Dynamic ^11C raclopride PET scan results for calculation of dopamine RO % were measured in caudate, putamen, thalamus, and temporal lobe of each subject tested, and are summarized in Tables 3-B to 3-F below.

[1] = 50 mg QD, Subject 1, 2.5 h after LB-102 admin.
[2] = 50 mg QD, Subject 1, 7.5 h after LB-102 admin.
[3] = 50 mg QD, Subject 1, 23.5 h after LB-102 admin.
[4] = 50 mg QD, Subject 2, 2.5 h after LB-102 admin.
[5] = 50 mg QD, Subject 2, 7.5 h after LB-102 admin.
[6] = 50 mg QD, Subject 2, 23.5 h after LB-102 admin.
[7] = 50 mg QD, Subject 3, 7.5 h after LB-102 admin.
[8] = 50 mg QD, Subject 3, 23.5 h after LB-102 admin.
[9] = 50 mg QD, Subject 4, 2.5 h after LB-102 admin.
[10] = 50 mg QD, Subject 4, 7.5 h after LB-102 admin.
[11] = 50 mg QD, Subject 4, 23.5 h after LB-102 admin.
[12] = 50 mg SS (Day 4), Subject 1, ~3 h after LB-102 admin.
[13] = 50 mg SS (Day 4), Subject 1, ~8 h after LB-102 admin.
[14] = 50 mg SS (Day 4), Subject 1, ~24 h after LB-102 admin.
[15] = 50 mg SS (Day 4), Subject 2, ~3 h after LB-102 admin.
[16] = 50 mg SS (Day 4), Subject 2, ~8 h after LB-102 admin.
[17] = 50 mg SS (Day 4), Subject 2, ~24 h after LB-102 admin.
[18] = 75 mg QD, Subject 1, 3.5 h after LB-102 admin.
[19] = 75 mg QD, Subject 1, 23.5 h after LB-102 admin.
[20] = 75 mg QD, Subject 1, 47.5 h after LB-102 admin.
[21] = 75 mg QD, Subject 2, 3.5 h after LB-102 admin.
[22] = 75 mg QD, Subject 2, 23.5 h after LB-102 admin.
[23] = 75 mg QD, Subject 2, 47.5 h after LB-102 admin.

CCN1CCCC1CNC(=O)c1cc(S(=O)(=O)CC)c(NC)cc1OC (stereo not shown) [LB-102]
Dopamine RO % (Caudate + Putamen) (50 mg QD, 0 h after LB-102 administration): 0%
Dopamine RO % (Caudate + Putamen) (50 mg QD, 3 h after LB-102 administration): 24%
Dopamine RO % (Caudate + Putamen) (50 mg QD, 8 h after LB-102 administration): 38%
Dopamine RO % (Caudate + Putamen) (50 mg QD, 24 h after LB-102 administration): 42%
Dopamine RO % Caudate [1]: 26%
Dopamine RO % Putamen [1]: 23%
Dopamine RO % Temporal lobe [1]: 25%
Dopamine RO % Thalamus [1]: 40%
Dopamine RO % Caudate [2]: 52%
Dopamine RO % Putamen [2]: 47%
Dopamine RO % Temporal lobe [2]: 32%
Dopamine RO % Thalamus [2]: 48%
Dopamine RO % Caudate [3]: 58%
Dopamine RO % Putamen [3]: 48%
Dopamine RO % Temporal lobe [3]: 30%
Dopamine RO % Thalamus [3]: 39%
Dopamine RO % Caudate [4]: 28%
Dopamine RO % Putamen [4]: 25%
Dopamine RO % Temporal lobe [4]: 16%
Dopamine RO % Thalamus [4]: 42%
Dopamine RO % Caudate [5]: 42%
Dopamine RO % Putamen [5]: 37%
Dopamine RO % Temporal lobe [5]: 14%
Dopamine RO % Thalamus [5]: 31%
Dopamine RO % Caudate [6]: 45%
Dopamine RO % Putamen [6]: 36%
Dopamine RO % Temporal lobe [6]: 11%
Dopamine RO % Thalamus [6]: 23%
Dopamine RO % Caudate [7]: 36%
Dopamine RO % Putamen [7]: 25%
Dopamine RO % Temporal lobe [7]: 20%
Dopamine RO % Thalamus [7]: 42%
Dopamine RO % Caudate [8]: 53%
Dopamine RO % Putamen [8]: 37%
Dopamine RO % Temporal lobe [8]: 18%
Dopamine RO % Thalamus [8]: 45%
Dopamine RO % Caudate [9]: 23%
Dopamine RO % Putamen [9]: 19%
Dopamine RO % Temporal lobe [9]: 23%
Dopamine RO % Thalamus [9]: 26%
Dopamine RO % Caudate [10]: 43%
Dopamine RO % Putamen [10]: 34%
Dopamine RO % Temporal lobe [10]: 43%
Dopamine RO % Thalamus [10]: 28%
Dopamine RO % Caudate [11]: 45%
Dopamine RO % Putamen [11]: 34%
Dopamine RO % Temporal lobe [11]: 45%
Dopamine RO % Thalamus [11]: 18%
Dopamine RO % Caudate [12]: 75%
Dopamine RO % Putamen [12]: 67%
Dopamine RO % Temporal lobe [12]: 18%
Dopamine RO % Thalamus [12]: 44%
Dopamine RO % Caudate [13]: 78%
Dopamine RO % Putamen [13]: 69%
Dopamine RO % Temporal lobe [13]: 17%
Dopamine RO % Thalamus [13]: 40%
Dopamine RO % Caudate [14]: 75%
Dopamine RO % Putamen [14]: 66%
Dopamine RO % Temporal lobe [14]: 35%
Dopamine RO % Thalamus [14]: 30%
Dopamine RO % Caudate [15]: 74%
Dopamine RO % Putamen [15]: 66%
Dopamine RO % Temporal lobe [15]: 26%
Dopamine RO % Thalamus [15]: 37%
Dopamine RO % Caudate [16]: 76%
Dopamine RO % Putamen [16]: 70%
Dopamine RO % Temporal lobe [16]: 25%
Dopamine RO % Thalamus [16]: 43%
Dopamine RO % Caudate [17]: 73%
Dopamine RO % Putamen [17]: 63%
Dopamine RO % Temporal lobe [17]: 34%
Dopamine RO % Thalamus [17]: 56%
Dopamine RO % (Caudate + Putamen) (50 mg SS (once a day for 4 days), 3 h after Day 4 administration): 69%
Dopamine RO % (Caudate + Putamen) (50 mg SS (once a day for 4 days), 24 h after Day 4 administration): 68%
average dopamine (e.g., D2/D3) RO % in caudate, putamen, and thalamus (50 mg SS and 100 mg SS, at least from Day 4 since the treatment began): significantly stabilized
Dopamine RO % (Caudate + Putamen) (75 mg QD, 0 h after LB-102 administration): 0%
Dopamine RO % (Caudate + Putamen) (75 mg QD, 3 h after LB-102 administration): 33%
Dopamine RO % (Caudate + Putamen) (75 mg QD, 24 h after LB-102 administration): 55%
Dopamine RO % Caudate [18]: 27%
Dopamine RO % Putamen [18]: 20%
Dopamine RO % Temporal lobe [18]: 12%
Dopamine RO % Thalamus [18]: 31%
Dopamine RO % Caudate [19]: 70%
Dopamine RO % Putamen [19]: 52%
Dopamine RO % Temporal lobe [19]: 45%
Dopamine RO % Thalamus [19]: 64%
Dopamine RO % Caudate [20]: 53%
Dopamine RO % Putamen [20]: 38%
Dopamine RO % Temporal lobe [20]: 4%
Dopamine RO % Thalamus [20]: 16%
Dopamine RO % Caudate [21]: 53%
Dopamine RO % Putamen [21]: 48%
Dopamine RO % Temporal lobe [21]: 21%
Dopamine RO % Thalamus [21]: 44%
Dopamine RO % Caudate [22]: 58%
Dopamine RO % Putamen [22]: 53%
Dopamine RO % Temporal lobe [22]: 17%
Dopamine RO % Thalamus [22]: 37%
Dopamine RO % Caudate [23]: 45%
Dopamine RO % Putamen [23]: 39%
Dopamine RO % Temporal lobe [23]: 16%
Dopamine RO % Thalamus [23]: 25%
Dopamine RO % Caudate (75 mg QD, Subject 3, 3.5 h after LB-102 admin.): 57%
